The text below walks through data of article PMC12617972, “Inhibition of human cytomegalovirus replication by valaciclovir” (The Journal of General Virology, 2025).

Series [1] relates to HCMV strain Merlin (R1111). The series can be described thus: microbe, parasite or virus in culture. The class given is cell-based, human cytomegalovirus. The note with it: for anti-HCMV activity in HFFF cells relative to other cell lines: HFFF cells vs HFF and SGHPL-4 cells; for EC50: read-out: 50% effective dose (EC50), anti-HCMV activity.
A further series concerns HSV-1 strain 17+. The series can be described thus: Virus yield assay, HSV in HFF cells. The class given is cell-based, herpes simplex virus. The note with it: HFF (adult fibroblast) cells, MOI 1, 48 h post-infection.
The test system of series [2] is HCMV. The note with it: previous studies; cited from earlier work.
In a further series the test system is uninfected cell. Details: method as in PMID 16492567. The note with it: cited from earlier work.
For series [3], the system named is HCMV. Set-up: method as in PMID 32919517. The note with it: high doses administered during pregnancy, clinical trial; cited from earlier work.
The conditions of series [4]: 2,000 mg dose; calculated with ChatGPT3 as Cmax × 1,000/molecular weight from commonly used literature Cmax values; cited from earlier work.
For series [5] the following is noted: 2,000 mg/6 h; cited from earlier work.
Another series relates to SGHPL-4 cells. The note with it: uninfected SGHPL-4 cells, 96 h, high and low cell numbers, 0.5% FBS.
A further series relates to HFFF cells. The note with it: uninfected HFFF cells, 96 h, high and low cell numbers.
In the next series the test system is HFF cells. The note with it: uninfected HFF cells, 96 h, high and low cell numbers.
[6] abbreviates: HFF, HFFF and SGHPL-4 cells, MOI 1, 96 h.
Where [7] appears, read: Human betaherpesvirus 5, Fibroblast, 96 h.

“Also recorded” adds a separate entry of the source. Read-outs that look alike come from different tables or passages of the source.

In the case of `Nc1nc2c(ncn2COCCO)c(=O)[nH]1` [ACV, aciclovir], the “anti-HCMV effects compared to GCV” value in series [1] (setting [6]) is “less anti-HCMV effects compared to GCV”. The “anti-HCMV activity in HFFF cells relative to other cell lines” value in series [1] (MOI 1, 96 h) is “less than in HFF and SGHPL-4 cells”. The EC50 in series [1] (setting [7]) was found to be 2700 nM. The “50% effective dose (EC50), anti-HSV activity” value in the series with HSV-1 strain 17+ is given as “well below micromolar concentrations”.
Take `Nc1nc(O)c2ncn(COC(CO)CO)c2n1` [GCV, ganciclovir]: the “difference between GCV and ACV anti-HCMV effects in vitro” value in the series with HCMV [2] is listed as “approximately tenfold difference; also recorded: approximately tenfold greater”. Further, in [1] (setting [7]), the EC50 turned out to be 500 nM. In addition, in [1] (found here, HFF cells), the “difference between GCV and ACV inhibition of HCMV” value is reported as “approximately fivefold difference”. The “effect on uninfected cell viability in vitro” value in the series on uninfected cell is given as “little or no effect”. The “50% effective dose (EC50), anti-HSV activity” value in the series on HSV-1 strain 17+ is listed as “well below micromolar concentrations”.
As for `CC(C)[C@H](N)C(=O)OCCOCn1cnc2c(=O)[nH]c(N)nc21` [VACV, valaciclovir], in the series on HCMV [3], the “inhibition of HCMV foetal infection” value is given as “notable inhibition of HCMV foetal infection”. In addition, the plasma concentration in series [4] was 35 to 40 µM. Moreover, in [5], the tolerability in patients entry is listed as “well tolerated by patients, without toxicity”. The “effect on cell viability and cell division (MTT)” value in the series on SGHPL-4 cells, in the series with HFFF cells and in the series on HFF cells was “no obvious effect on cell viability” each time. For the same molecule, the “anti-HCMV effects compared to GCV” value in [1] (setting [6]) is “less anti-HCMV effects compared to GCV”. Also, the “inhibition of HCMV replication in each cell line” value in series [1] (HFF, HFFF and SGHPL-4 cells, lower drug concentration, MOI 1, 96 h) was “inhibitor of HCMV in all cell lines”. In addition, the “anti-HCMV activity in HFFF cells relative to other cell lines” value in [1] (MOI 1, 96 h) was “less than in HFF and SGHPL-4 cells”. Moreover, the concentration for a half-maximal effect (EC50) in series [1] (Human betaherpesvirus 5, HFF (adult fibroblast) cells, MOI 1, 96 h post-infection, virus yield) is 3400 nM.
